Test results published in US20170224772A1, “COMPOSITION AND KIT FOR PREVENTION OR TREATMENT OF ARTHRITIS, AND METHOD USING THE SAME” (Samsung Electronics Co., Ltd., priority 2014, published 2017).
Marks after values point to notes of the source that are not given here.

Assays:
Type in all cases: in vivo, mouse (DBA/1)
[1] = tested on: Mice in which rheumatoid arthritis was induced; experiment: Histopathological assessment of knee cartilage (H&E, Safranin O); details: H&E and Safranin O, Week 13 after first immunization
From the text: (§1) Mice were divided into five groups, and saline solution, hASCs, and CTLA4Ig-hASC were intravenously injected to mouse tails on Day 63, Day 70, Day 77, and Day 84 after immunization as shown in Table 1 below.
(§2) Knee cartilage tissues were stained to investigate the degree of cartilage injury and bone injury by rheumatoid arthritis, and micro-computed tomography images were obtained to verify morphologic defects in paw joints.
In Week 13 after the first immunization, knee cartilage tissues were obtained from the animals of Example 1-2. The obtained knee cartilage tissues were fixed by using 10% (v/v) neutral buffered formalin (Sigma-Aldrich), and the resulting solution was stirred by using a rapid decalcifier (Thermo Scientific) for 24 hours to decalcify. When an osseous tissue was easily cut by a razor, it was assumed that the tissue was completely decalcified. The decalcified osseous tissue was dehydrate and embedded in paraffin. To assess histopathological injury, the paraffin-embedded tissue was cut into 4 μm-thick slices, and the paraffin was removed from the slices by using xylene. Then, the slices were rehydrated by using a graded alcohol, and stained by using hematoxylin and eosin (H&E) (DAKO) and Safranin O (IHC World). […]

[2] = tested on: Mice in which rheumatoid arthritis was induced; experiment: Assessment of arthritis severity (score of edema and flare at fore and hind paws); details: 0-4 per leg, maximum 16; after three times of administration; in comparison with negative control group
Experimental: (§3) Chicken type II collagen (Sigma-Aldrich) was mixed with 0.05 M acetic acid at 4° C. to the concentration of 2 mg/ml. The resulting mixture and Freund's complete adjuvant (CFA) (Sigma-Aldrich) were mixed at an equal amount ratio, and then the resulting mixture was homogenized at 30000 rpm for three minutes by using a homogenizer (Polytron PT3100D) to prepare an antigen material for administration. For a first immunization, the antigen material for administration was intradermally injected to a mouse tail (DBA/1 mouse, six weeks old) (Day 1). Three weeks later, the CFA was replaced by Freund's incomplete adjuvant (IFA) (Sigma-Aldrich), and boosting was performed by the same method.
as §1
In the mice of Example 1-2, from Day 62 after the immunization, the severity of arthritis at the fore paw and the hind paw was assessed three times per week in a score from 0 point (No arthritis) to 4 point (Severe arthritis) according to the degree of edema and flare. The assessment was performed at each leg with the maximum possible score of 16. The clinical score was measured at each mouse by Day 90 after the immunization. […]

[3] = tested on: cytokine; experiment: Multiplex measurement of cytokine concentration in serum
Experimental: as §1
(§4) To verify the variation of cytokine expression according to transplantation of hASC or CTLA4Ig-hASC, the serum, knee extract, splenocytes, and lymph node cells obtained in Example 1-2 were prepared.
(§5) The cytokine concentration in serum, knee extract, and the obtained supernatant of the culture solutions of splenocytes and lymph node cells was measured by using a multiplex cytokine/chemokine kit (Milliplex MAP mouse cytokine/chemokine kit, Millipore) by following the protocol provided by the manufacturer. As cytokines, tumor necrosis factor (TNF)-αinterferon (IFN)-α, interleukin (IL)-1α, IL-1β, IL-2, IL-4, IL-6, IL-10, IL-12p70, IL-15, IL-17, keratinocyte-derived chemokine (KC), monocyte chemotactic protein (MCP)-1, macrophage inflammatory protein (MIP)-2, and regulated-upon-activation normal T-cell expressed and secreted (RANTES) were measured.
(§6) The cytokine concentration (pg/ml) in the splenocyte culture medium that was cultured in the presence of Type II collagen, ConA, an LPS is shown in Tables 4 to 6, respectively. The cytokine concentration (pg/ml) in the lymph node cell culture solution that was cultured in the presence of ConA is shown in Table 7.
(§7) The data obtained from each group was compared by performing a Kruskal Wallis test (†: P<0.05) or a (Mann-Whitney U test) (*: significant difference in comparison with the negative control group (p<0.05)).

[4] = tested on: cytokine; experiment: Multiplex measurement of cytokine concentration in knee extract
Experimental: as §1, §4, §5, §6, §7

[5] = tested on: Mice in which rheumatoid arthritis was induced; experiment: ELISA of anti-mouse type II collagen antibody, C-telopeptide I and C-telopeptide II in serum; details: comparison among negative control and treatment groups
Experimental: as §3, with “method. […]” for “method.”
In the serum obtained in Example 1-2, anti-mouse type II collagen antibody, C-terminal telopeptide of Type I collagen (C-telopeptide I) that was a Type I collagen discharged during osteoclastic bone resorption, and C-terminal telopeptide of Type II collagen (C-telopeptide II) that was a chondrolysis product were detected by ELISA.
Specifically, anti-mouse type II collagen antibody, C-telopeptide I, and C-telopeptide II in the serum were measured by using an anti-mouse type II antibody collagen ELISA kit (Astarte Biologics), RatLap™ EIA kit (Immunodiagnostic Systems Ltd.), and a type II collagen ELISA kit (CUSABIO), respectively. […]

[6] = tested on: cytokine; experiment: Cytokine concentration in lymph node cell culture solution, cultured in the presence of ConA
Experimental: as §1, §4
Splenocytes of each group were separated. 2.5×10^5/well of splenocytes cultured in 96-well plate (Nunc) in a final volume of 200 μl including or not including 100 μg/ml of Type II collagen (Sigma Aldrich), 2.5 μg/ml of concanavalin A (ConA) (Sigma Aldrich), and 2.5 μg/ml of lipopolysaccharide (LPS) (Sigma Aldrich). […]
as §5, with “measured. […]” for “measured.”

[7] = tested on: cytokine; experiment: Cytokine concentration in splenocyte culture medium, cultured in the presence of Type II collagen; details: Type II collagen 100 μg/ml, 48 hours
Experimental: as §1, §4
(§8) Splenocytes of each group were separated. 2.5×10^5/well of splenocytes cultured in 96-well plate (Nunc) in a final volume of 200 μl including or not including 100 μg/ml of Type II collagen (Sigma Aldrich), 2.5 μg/ml of concanavalin A (ConA) (Sigma Aldrich), and 2.5 μg/ml of lipopolysaccharide (LPS) (Sigma Aldrich). The cells were incubated in humidified air at 37° C. for 48 hours. Then, the supernatant of the splenocyte culture medium was obtained and stored at −70° C. By the same method, lymph node cells were cultured in a culture medium including ConA, and the supernatant of lymph node cell culture solution was obtained.
as §5
as §6, with “7. […]” for “7.”

[8] = tested on: Mice in which rheumatoid arthritis was induced; experiment: Micro-CT verification of morphologic defects in paw joints; details: score 0-4
From the text: as §1, §2
To verify morphological defects in paw joints, the mice paw obtained in Example 1-2 were fixed by using 4%(v/v) formalin (Sigma-Aldrich), and images of the mouse paws were obtained by using Inveon Preclinical CT (Siemens Healthcare) that is a micro-CT scanner at 40 μm of thickness, 0.6 second of exposure time, 70 keV of […] energy, and 400 μA of current. The images were reconstructed into three-dimensional images by using IRW software (Siemens Healthcare).
The data were compared among the groups by performing an ANOVA and then Tukey's multiple comparison tests. A significant difference in comparison with the negative control group was marked as “*” (p<0.05).

[9] = tested on: cytokine; experiment: Cytokine concentration in splenocyte culture medium, cultured in the presence of ConA; details: ConA 2.5 μg/ml, 48 hours
Experimental: as §1, §4, §8, §5, §6, §7

[10] = tested on: cytokine; experiment: Cytokine concentration in splenocyte culture medium, cultured in the presence of LPS; details: LPS 2.5 μg/ml, 48 hours
Experimental: as §1, §8, §5, §7

## CN(Cc1cnc2nc(N)nc(N)c2n1)c1ccc(C(=O)N[C@@H](CCC(=O)O)C(=O)O)cc1 [MTX, methotrexate]
[1]
  destruction of the joint cartilage: severely damaged
[2]
  arthritis severity score: a pattern that was similar to that of the negative control group
[3]
  IL-6 concentration: 161.10 ± 59.69 pg/mL
  MIP-2 concentration: 17.36 ± 8.79* pg/ml
  TNF-α concentration: 5.22 ± 1.37 pg/mL
[4]
  IL-1β concentration: 4.54 ± 2.88 pg/mL
  IL-6 concentration: 19.37 ± 11.87 pg/mL
  KC concentration: 305.82 ± 147.86 pg/mL
  MIP-2 concentration: 50.36 ± 19.78 pg/mL
  RANTES concentration: 0.20 ± 0.07* pg/ml
[5]
  concentration of C-telopeptide I in serum: not significantly different
[6]
  IL-10 concentration: 23.11 ± 4.08 pg/mL
[7]
  IL-10 concentration: 3.75 ± 0.89 pg/mL
  IL-17 concentration: 4.73 ± 2.01 pg/mL
  MCP-1 concentration: 591.43 ± 222.2 pg/mL
[8]
  mice showing a severe morphological defect in the paw joints: four mice out of the seven mice
[9]
  IL-1α concentration: 21.02 ± 3.77 pg/mL
  IL-6 concentration: 279.78 ± 71.12 pg/mL
  IL-10 concentration: 80.76 ± 23.19 pg/mL
  IL-17 concentration: 1345.14 ± 590.38 pg/mL
  KC concentration: 10.78 ± 1.86 pg/mL
  MCP-1 concentration: 549.99 ± 220.33 pg/mL
[10]
  IL-1α concentration: 112.01 ± 27.82 pg/mL
  IL-4 concentration: 0.37 ± 0.24 pg/mL
  IL-6 concentration: 4676.79 ± 1097.10 pg/mL
  KC concentration: 199.78 ± 50.25 pg/mL
  MCP-1 concentration: 250.79 ± 87.01 pg/mL
  MIP-2 concentration: 2022.27 ± 409.37 pg/mL
  RANTES concentration: 128.44 ± 24.46 pg/mL
  TNF-α concentration: 90.65 ± 20.41 pg/mL
